Entries after “also recorded” stand apart in the source; their conditions may differ. Where two headings read alike, the source gives them in different places.

Consider 3 compounds from article PMC8014892, “Permeation Studies across Symmetric and Asymmetric Membranes in Microdroplet Arrays” (Analytical Chemistry, 2021).

On the set-up of data set [1]: method as in PMID 19560324. The following applies: calcein permeation across liposome membranes; cited from earlier work.
Data set [2] in a line: Permeation across symmetric 100% DOPC DIBs in droplet pairs, fluorescence microscopy. In kind it is in vitro ADME. As to conditions: for Permeation across the DIB (observation in words): pH 6.0, 100% DOPC DIBs, calcein observed for 2900 minutes; for Permeation across the DIB (observation in words) / Papp at 50 µM: 37 °C; for Papp at 50 µM: not told, droplet pairs, N = 27; for Papp at 50 µM / kad / kda: acceptor 100% DOPC. As to the method: The lipid-out approach was used to add phospholipids to the water/oil interface, i.e., lipids were dissolved in the oil phase. We purchased 1,2-dioleoyl-sn-glycero-3-phosphocholine (DOPC) and 1,2-dioleoyl-sn-glycero-3-phospho-L-serine (DOPS) as solutions in chloroform from Avanti Polar Lipids (Alabaster, AL, U.S.A.). We placed the required lipids in pear-shaped flasks and removed the chloroform with a rotary evaporator (Büchi Labortechnik AG, Flawil, Switzerland) forming a film. The lipid film was dissolved in a 1:1 (v/v) mix of hexadecane (reagent plus grade, Sigma–Aldrich) and squalane (Sigma–Aldrich) in an ultrasonication bath at 50 °C for ∼30 min. The final phospholipid concentration in oil was 0.625 mM for donor droplets and 1.25 mM for acceptor droplets.
We used either 100% DOPC or 30% DOPC and 70% DOPS mixtures (mole percentage). We filtrated the phospholipid-oil solution before use (0.45 μm pore size, RC 4 Male Luer Slip Minisart filters, Huberlab, Switzerland).
All aqueous solutions were prepared in LC–MS grade water (Fisher Scientific, Loughborough, U.K.). We used as buffers 20 mM 2-morpholinoethanesulfonic acid (MES, pH 6.0, Alfa Aesar), 20 mM phosphate buffer (pH 7.0, Acros Organics), 50 mM 4-(2-hydroxyethyl)-1-piperazineethanesulfonic acid (HEPES, pH 7.4, gibco, Paisley, U.K.), or 20 mM tris(hydroxymethyl)aminomethane (Tris, pH 8.0, VWR). […] PEG4-NBD was synthesized from succinimidyl 6-(N-(7-nitrobenz-2-oxa-1,3-diazol-4-yl)amino)hexanoate (NBD NHS-ester, Molecular Probes Life Technologies, Eugene, OR, U.S.A.) and amine-terminated poly(ethylene glycol)-4 alcohol (Amino-PEG4-OH, Quanta Biodesign, Plain City, OH, U.S.A.).[26] A 1:1 molar ratio of the NBD NHS-ester and Amino-PEG4-OH was reacted in a 10:1 (v/v) solution of chloroform (Sigma–Aldrich) and triethylamine (Brenntag Schweizerhall, Basel, Switzerland). The reaction was held at 45 °C for 2 h, followed by 22 °C for 12 h. Afterward, the reaction products were separated with a preparative liquid chromatography system (Prep 150 LC system, Waters). The mass of the product PEG4-NBD was confirmed with an LC–MS system (Ultimate 3000 MSQ, Dionex).
We placed the microarray plate in a removable temperature-controlled holder (T = 37 °C) with a transparent bottom, which was mounted on a motorized XY stage (HLD117, Prior) of an inverted fluorescence microscope (Olympus IX73). We carried out the experiments in an oil bath to reduce droplet evaporation. The plate holder was filled with ∼4 mL of 1:1 (v/v) hexadecane:squalane without phospholipids and 50 μL of water in all four edges to reduce droplet shrinkage. We used a self-made microfluidic T-junction device made of polycarbonate (PC) to generate droplets of ∼25 nL by continuously injecting the aqueous phase (flow rate: 0.5 μL/min) into the immiscible oil phase (flow rate: 2 μL/min). The droplets were transported through a capillary onto the microarray plate. In this time, the phospholipids in the oil aligned along the water/oil interface and formed a monolayer.[27],[28] We mounted the end of the capillary on a motorized Z stage (M-403.2PD, Physik Instrumente, Karlsruhe, Germany). The generated droplets were detected in the capillary holder with a custom-made optical droplet detection system.[22] This was utilized to selectively deposit a single droplet per predefined position by synchronizing droplet generation and capillary and microarray movements. All components of the microscope and the capillary were controlled by the software YouScope for automated microscopy (R2018, v2.1.0).[29]
Fluorescence and bright-field pictures were recorded using a light source (Lumen 300, Prior and TH4-200, Olympus) and a complementary metal oxide semiconductor (CMOS) camera (Zyla 4.2, Andor) connected to the Olympus IX73 microscope. To track fluorescein, calcein, and PEG4-NBD, a blue excitation filter set (exciter HQ470/40x, dichroic 500dcxr BS, and emitter E515lpv2; Chroma Technology Corp, Bellows Falls, VT, U.S.A.) was used. […]

The conditions of data set [3]: cited from earlier work.
Data set [4] can be described thus: Permeation over multiple compartments (one donor, four acceptor droplets in series). The data set is classed as in vitro ADME. The following applies: for Papp at 50 µM: not told. As to the method:
For several acceptor droplets in series, the numerical solutions of a differential equation system according to eqs 5 to 7 were fitted to the normalized fluorescence data of donor and acceptor droplets. The solutions of the differential equation system and the fitting were performed with the Matlab (version 2018a, Mathworks) functions ode15s, fmincon (minimizing the sum of squared residues), and MultiStart. [drawing 5] 5 [drawing 6] 6 [drawing 7] 7
W(n) is the fluorescence in the water phase of droplet n, k is the mass transfer rate constant (the fit parameter), and N is the total number of donor and acceptor droplets. The expression N > 2 equals 1 if N > 2 and 0 if N ≤ 2, and n < N equals 1 if n < N and 0 if n ≥ N.
Our platform allows for spotting droplet lines, instead of just pairs. With this, we can monitor how permeation and diffusion of compounds progress over several compartments. For creation of multiple droplets, connected via DIBs, we used a modified glass plate, where cavities were created in lines. Several fluorophore-free acceptor droplets were deposited in this line accordingly. The last droplet contained fluorescein, which permeates over the multiple compartments. […] Permeation at pH 7.4 was slower, which was expected from the experiments with the droplet pairs and from the ionization state of fluorescein (Supporting Information, Figure S11). The Papp,fit at pH 7.4 was (19.01 ± 1.16) × 10^–6 cm/s, higher than determined with the droplet pairs at pH 7.0 (7.05 ± 0.42) × 10^–6 cm/s. […] The lag phase observed at pH 7.0 (Supporting Information Figure S5) has a higher impact on the fit parameters in the assay with only two droplets (reducing the apparent rate constants) than with several droplets in series.

Data set [5] is described as follows: Label-free permeation analysis of droplet pairs by LC-MS. In kind it is in vitro ADME. As to conditions: not told, pH 6, pH 6.0, LC-MS, N = 4. As to the method: For subsequent LC–MS analysis, we used a recently developed protocol to split the droplet pairs.[24] The capillary used before for spotting of droplets was flushed with hexadecane/squalane (1:1) and placed between two connecting droplets to separate the droplet pairs. To extract individual droplets, the capillary was flushed with fluorinated oil (HFE-7500, 3 M Novec, Hadfield, U.K.) and connected to a 50 μL glass syringe (Hamilton, Switzerland). The center of the capillary was lowered to a height where it slightly squeezed the droplet. Subsequently, by slowly pulling the glass syringe, the droplet was aspirated. Afterward, the capillary was moved over a small tube (TreffLab Degersheim, Switzerland), and the aspirated droplet was ejected. […]
The sample was analyzed in a 1260 II Infinity LC Quaternary system coupled to a single quadrupole atmospheric pressure ionization-electrospray (API-ES) G6130B mass spectrometer (Agilent). […] All analytes were detected with selected ion monitoring (SIM) in a positive mode. […]
Equations 1 and 2 were fitted to the data with OriginPro. […] Data from every droplet pair were individually fitted and evaluated. […] We further approximated that the area of the droplet interface bilayer is circular,[32] and we calculated the area (A) for the individual droplet pairs via the measured droplet interface bilayer diameter from the bright-field images (as indicated in Table S1). […]

A short description of data set [6]: Permeation across symmetric and asymmetric DIBs containing 30% DOPC 70% DOPS, droplet pairs, fluorescence microscopy. In kind it is in vitro ADME. The following applies: not told.
Description: We placed the microarray plate in a removable temperature-controlled holder (T = 37 °C) with a transparent bottom, which was mounted on a motorized XY stage (HLD117, Prior) of an inverted fluorescence microscope (Olympus IX73). We carried out the experiments in an oil bath to reduce droplet evaporation. […] The generated droplets were detected in the capillary holder with a custom-made optical droplet detection system.[22] […]
Fluorescence and bright-field pictures were recorded using a light source (Lumen 300, Prior and TH4-200, Olympus) and a complementary metal oxide semiconductor (CMOS) camera (Zyla 4.2, Andor) connected to the Olympus IX73 microscope. […]
The recorded fluorescence signals were evaluated using Fiji[30] and OriginPro (2019, 9.6, OriginLab Corporation). First, we subtracted the background fluorescence for data evaluation. In a next step, we normalized the fluorescence to compensate for potential leakage into the oil phase, membrane partitioning, shrinkage of droplets, or fluorescence bleaching. For the normalization, the sum of fluorescence of all droplets in the first image was set to 100%. […]

Regarding `O=C(O)CN(CC(=O)O)Cc1cc2c(cc1O)Oc1cc(O)c(CN(CC(=O)O)CC(=O)O)cc1C21OC(=O)c2ccccc21` [calcein], in data set [1], the permeability coefficients is 10^–10 to 10^–11 cm/s. Further, the “Permeation across the DIB (observation in words)” value in data set [2] is on record as “no permeation was observed”; in data set [2] (listed as Calcein), “did not permeate; also recorded: No permeation observed”.

For `O=C1OC2(c3ccc(O)cc3Oc3cc(O)ccc32)c2ccccc21` [fluorescein], the Papp at 50 µM in data set [2] (pH 6, donor 100% DOPC) stood at 193 ± 17.8 ×10⁻⁶ cm/s; in data set [2] (pH 7, donor 100% DOPC), 7.05 ± 0.42 ×10⁻⁶ cm/s; in data set [2] (pH 8, donor 100% DOPC) it was 1.05 ± 0.06 ×10⁻⁶ cm/s; in data set [4] (pH 6, one donor to four acceptor droplets, 100% DOPC, eqs 5–7 and 3, N = 12 droplet networks), 200 ± 9.73 ×10⁻⁶ cm/s; in data set [4] (pH 7.4, one donor to four acceptor droplets, eqs 5–7 and 3), 19 ± 1.16 ×10⁻⁶ cm/s. Moreover, in data set [2], the “Permeation across the DIB (observation in words)” value was “permeated across the DIB”. The kad in data set [2] (pH 6, donor 100% DOPC) is reported as 4046.0 × 10-6 (1/s); in data set [2] (pH 7, donor 100% DOPC) it was 145.0 × 10-6 (1/s); in data set [2] (pH 8, donor 100% DOPC), 20.3 × 10-6 (1/s). The kda is given as 4046.0 × 10-6 (1/s) in data set [2] (pH 6, donor 100% DOPC); 145.0 × 10-6 (1/s) in data set [2] (pH 7, donor 100% DOPC); 20.3 × 10-6 (1/s) in data set [2] (pH 8, donor 100% DOPC). Also, the permeation constant in data set [3] (pH 6.4, Nisisako et al.) was 60.0 ± 22.4 × 10^–6 cm/s; in data set [3] (pH 7.4, Schlicht and Zagnoni), 2.01 ± 1.46 × 10^–6 cm/s; in data set [3] (pH 7.5, Nisisako et al.), 5.1 ± 1.8 × 10^–6 cm/s. Further, the “Time until equilibrium was reached in all five droplets” value in data set [4] (pH 6, five droplets in series) is recorded as “approximately 30 min”.

As to `CC/N=c1\cc2oc3cc(NCC)c(C)cc3c(-c3ccccc3C(=O)OCC)c-2cc1C` [rhodamine 6G], the Papp at 50 µM in data set [2] (pH 6, donor 100% DOPC) is 10.4 ×10⁻⁶ cm/s; in data set [5] (eq 3, fit of all data, read-out: Papp.fit (MS)) it was 6.28 ± 0.68 ×10⁻⁶ cm/s; in data set [5] (eq 4, sink condition, first two data points, read-out: Papp.sink (MS)) it was 9.42 ± 2.17 ×10⁻⁶ cm/s; in data set [6] (pH 6, pH 6, donor 30% DOPC 70% DOPS, acceptor 30% DOPC 70% DOPS (symmetric)), 12.1 ×10⁻⁶ cm/s; in data set [6] (pH 6, pH 6, donor 30% DOPC 70% DOPS, acceptor 100% DOPC (asymmetric)), 19.6 ×10⁻⁶ cm/s; in data set [6] (pH 6, pH 6, donor 100% DOPC, acceptor 30% DOPC 70% DOPS (asymmetric)) it was 6.56 ×10⁻⁶ cm/s. Besides, the kad in data set [2] (pH 6, donor 100% DOPC) is 166.8 × 10-6 (1/s). In data set [2] (pH 6, donor 100% DOPC), the kda is 166.8 × 10-6 (1/s).
